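Protocol summary: plate cells (96-well), add compound at 5 concentrations, incubate 48 h, interpolate endpoints linearly. GI50 = concentration required for 50% inhibition of growth.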 Activity calls are given as the source filed them. Rule as the data show it: active = GI50 up to about 1.1 µM and inactive = higher.
How the values were obtained:
Assay in all cases: DTP human tumour cell line panel, 48 h
RXF 393 = system: RXF 393
SF-295 = system: SF-295
HCT-116 = system: HCT-116
SF-539 = system: SF-539
NCI/ADR-RES = system: NCI/ADR-RES
OVCAR-3 = system: OVCAR-3
M14 = system: M14
A549 = system: A549
KM12 = system: KM12
UO-31 = system: UO-31
SW-620 = system: SW-620
MDA-N = system: MDA-N
U-251 = system: U-251
COLO 205 = system: COLO 205
MDA-MB-231 = system: MDA-MB-231
PC-3 = system: PC-3
A498 = system: A498
SF-268 = system: SF-268
OVCAR-4 = system: OVCAR-4
SNB-75 = system: SNB-75
IGROV-1 = system: IGROV-1
DU-145 = system: DU-145
HT-29 = system: HT-29
EKVX = system: EKVX
HOP-92 = system: HOP-92
TK-10 = system: TK-10
OVCAR-5 = system: OVCAR-5
CAKI-1 = system: CAKI-1
SK-MEL-28 = system: SK-MEL-28
OVCAR-8 = system: OVCAR-8
MDA-MB-435 = system: MDA-MB-435
NCI-H226 = system: NCI-H226
HCT-15 = system: HCT-15
NCI-H23 = system: NCI-H23
SNB-19 = system: SNB-19
SK-MEL-5 = system: SK-MEL-5
SN12C = system: SN12C
ACHN = system: ACHN
LOX IMVI = system: LOX IMVI
SK-MEL-2 = system: SK-MEL-2
Hs-578T = system: Hs-578T
786-0 = system: 786-0
T47D = system: T47D
RPMI-8226 = system: RPMI-8226
UACC-62 = system: UACC-62
NCI-H460 = system: NCI-H460
HCC 2998 = system: HCC 2998
K562 = system: K562
SK-OV-3 = system: SK-OV-3
Malme-3M = system: Malme-3M
UACC-257 = system: UACC-257
NCI-H522 = system: NCI-H522
MCF7 = system: MCF7
HOP-62 = system: HOP-62
MOLT-4 = system: MOLT-4

`CC(O)(C#N)CC(O)(C(F)(F)Cl)C(F)(F)Cl` (stereo unspecified) was tested, and the GI50 (RXF 393) was > 10 µM (inactive), the GI50 (SF-295) was > 10 µM (inactive) and the GI50 (HCT-116) was > 10 µM (inactive). The GI50 (SF-539) was > 10 µM (inactive), the GI50 (NCI/ADR-RES) was > 10 µM (inactive) and the GI50 (OVCAR-3) was > 10 µM (inactive). The GI50 (M14) was > 10 µM (inactive), the GI50 (A549) was > 10 µM (inactive) and the GI50 (KM12) was > 10 µM (inactive). The GI50 (UO-31) was > 10 µM (inactive), the GI50 (SW-620) was > 10 µM (inactive) and the GI50 (MDA-N) was > 10 µM (inactive). The GI50 (U-251) was > 10 µM (inactive), the GI50 (COLO 205) was > 10 µM (inactive) and the GI50 (MDA-MB-231) was > 10 µM (inactive). For the same compound, the GI50 (PC-3) was > 10 µM (inactive), the GI50 (A498) was > 10 µM (inactive) and the GI50 (SF-268) was > 10 µM (inactive). For the same compound, the GI50 (OVCAR-4) was > 10 µM (inactive), the GI50 (SNB-75) was > 10 µM (inactive) and the GI50 (IGROV-1) was > 10 µM (inactive). For the same compound, the GI50 (DU-145) was > 10 µM (inactive), the GI50 (HT-29) was > 10 µM (inactive) and the GI50 (EKVX) was > 10 µM (inactive). For the same compound, the GI50 (HOP-92) was > 10 µM (inactive), the GI50 (TK-10) was > 10 µM (inactive) and the GI50 (OVCAR-5) was > 10 µM (inactive). The GI50 (CAKI-1) was > 10 µM (inactive), the GI50 (SK-MEL-28) was > 10 µM (inactive) and the GI50 (OVCAR-8) was > 10 µM (inactive). The GI50 (MDA-MB-435) was > 10 µM (inactive), the GI50 (NCI-H226) was > 10 µM (inactive) and the GI50 (HCT-15) was over 10 µM. For the same compound, the GI50 (NCI-H23) was > 10 µM (inactive), the GI50 (SNB-19) was > 10 µM (inactive) and the GI50 (SK-MEL-5) was > 10 µM (inactive). For the same compound, the GI50 (SN12C) was > 10 µM (inactive) and the GI50 (ACHN) was > 10 µM (inactive).
With `C[n+]1c2ccccc2c(C(=O)Nc2ccc(S(=O)(=O)N=C(N)N)cc2)c2ccccc21` the GI50 (SF-295) was > 100 µM (inactive), the GI50 (HCT-116) was > 100 µM (inactive) and the GI50 (SF-539) was > 100 µM (inactive). For the same compound, the GI50 (NCI/ADR-RES) was > 100 µM (inactive), the GI50 (OVCAR-3) was > 100 µM (inactive) and the GI50 (LOX IMVI) was 75.3 µM (inactive). For the same compound, the GI50 (M14) was > 100 µM (inactive), the GI50 (A549) was > 100 µM (inactive) and the GI50 (SK-MEL-2) was > 100 µM (inactive). For the same compound, the GI50 (KM12) was > 100 µM (inactive), the GI50 (Hs-578T) was > 100 µM (inactive) and the GI50 (786-0) was > 100 µM (inactive). For the same compound, the GI50 (UO-31) was > 100 µM (inactive), the GI50 (T47D) was > 100 µM (inactive) and the GI50 (SW-620) was > 100 µM (inactive). The GI50 (RPMI-8226) was > 100 µM (inactive), the GI50 (MDA-N) was > 100 µM (inactive) and the GI50 (U-251) was > 100 µM (inactive). For the same compound, the GI50 (COLO 205) was > 100 µM (inactive), the GI50 (MDA-MB-231) was 23.2 µM (inactive) and the GI50 (UACC-62) was > 100 µM (inactive). The GI50 (PC-3) was > 100 µM (inactive), the GI50 (A498) was > 100 µM (inactive) and the GI50 (SF-268) was > 100 µM (inactive). The GI50 (NCI-H460) was > 100 µM (inactive), the GI50 (HCC 2998) was > 100 µM (inactive) and the GI50 (OVCAR-4) was > 100 µM (inactive). For the same compound, the GI50 (SNB-75) was > 100 µM (inactive), the GI50 (K562) was > 100 µM (inactive) and the GI50 (IGROV-1) was 35.6 µM (inactive). The GI50 (DU-145) was > 100 µM (inactive), the GI50 (HT-29) was > 100 µM (inactive) and the GI50 (EKVX) was > 100 µM (inactive). The GI50 (TK-10) was > 100 µM (inactive), the GI50 (OVCAR-5) was > 100 µM (inactive) and the GI50 (CAKI-1) was > 100 µM (inactive). The GI50 (SK-MEL-28) was > 100 µM (inactive), the GI50 (SK-OV-3) was > 100 µM (inactive) and the GI50 (OVCAR-8) was > 100 µM (inactive). For the same compound, the GI50 (Malme-3M) was > 100 µM (inactive), the GI50 (UACC-257) was > 100 µM (inactive) and the GI50 (NCI-H522) was > 100 µM (inactive). The GI50 (MDA-MB-435) was > 100 µM (inactive), the GI50 (NCI-H226) was > 100 µM (inactive) and the GI50 (HCT-15) was over 100 µM. For the same compound, the GI50 (MCF7) was > 100 µM (inactive), the GI50 (NCI-H23) was > 100 µM (inactive) and the GI50 (SNB-19) was > 100 µM (inactive). For the same compound, the GI50 (SK-MEL-5) was > 100 µM (inactive), the GI50 (HOP-62) was > 100 µM (inactive) and the GI50 (SN12C) was > 100 µM (inactive). For the same compound, the GI50 (ACHN) was > 100 µM (inactive) and the GI50 (MOLT-4) was 25.5 µM (inactive).

Reference: ChEMBL document CHEMBL1201862, “PubChem BioAssay data set” (2004)
